{"source": "patent US20220401560A1", "about": "“PEPTIDE ENCAPSULATING FERRITIN” (Ajinomoto Co., Inc., priority 2019, published 2022)", "system": "SKBR-3 cell", "experiment": "Cell incorporation test by FACS in SKBR-3 cell", "type": "cell-based, human", "conditions": "24 hours, FTH 100, 200 and 400 nM, or peptide without FTH encapsulation at the same peptide concentrations", "description": "A human breast cancer derived SKBR-3 cell (20,000 cell/well, 96-well plate) was added to 100 μL media that were produced by adding the PKC-F encapsulating FTH to evaluation media (Opti-MEM™ (Thermo Fisher Scientific Inc.)+1% non-essential amino acid solution (Thermo Fisher Scientific Inc.)+1% penicillin—streptomycin (Nacalai Tesque, Inc.)) at final concentrations of 100 nM (PKC-F concentration 0.86 μM), 200 nM (PKC-F concentration 1.72 μM) and 400 nM (PKC-F concentration 3.44 μM), respectively, and then cultured at 37° C. The transferrin receptor TfR was expressed in the SKBR-3 cell. […] After that 100 μL of an Opti-MEM™ medium was added, and the cells were transferred to a plate for fluorescence-activated cell sorting (FACS), and then subjected to centrifugal separation at 400×g for 5 minutes. The cells for each were suspended in a FACS buffer (Attune™ Focusing Fluid, Thermo Fisher Scientific Inc.), and analyzed by FACS (Attune NxT, Thermo Fisher Scientific Inc.).\nThe cell incorporation of the obtained FAM-SV40 encapsulating FTH was evaluated. […]\nAfter 100 μL of the Opti-MEM™ medium was added, the cells were transferred to the plate for fluorescence-activated cell sorting (FACS), and then subjected to centrifugal separation at 400×g for 5 minutes. […]", "note": "No end group written: not given here."}
{"substance": "5(6)-FAM-CGGPKKKRKVG (SEQ ID NO: 10) ({5(6)‑FAM}-CGGPKKKRKVG) [FAM-SV40, fluorescent dye-modified peptide, linear]", "values": [{"measurement": "fluorescence intensity of cells by FACS", "result": "not observed"}]}
